In patent US20060148763A1, “Compounds and methods for regulating triglyceride levels” (priority 2005, published 2006):

How the values were obtained:
Format in all cases: in vivo, human
Non-HDL = assay: Phase II cross-over study of P5P alone and with lisinopril in hypertensive type 2 diabetic patients: non-HDL
Method: (§1) Objective—A phase II clinical study was conducted to determine the effects of pyridoxal-5′-phosphate in combination with lisinopril on blood pressure and metabolic function in hypertensive patients with type 2 diabetes.
(§2) Summary of Study Design—The phase II study was a randomized, parallel group, cross-over, double-blinded to study medication, placebo-controlled comparison of P5P BID at total daily doses of 100, 300, or 1000 mg alone and in combination with 20 mg lisinopril given once daily (QD). In order to protect against antihypertensive and metabolic carry-over effects of lisinopril, all patients were randomized in 2 different treatment sequences. Patients randomized in the first treatment sequence receive an 8-week treatment with lisinopril 20 mg and P5P (or placebo) and then an 8-week treatment with P5P alone (or placebo). Patients randomized in the second treatment sequence receive an 8-week treatment with P5P alone and then an 8-week treatment with lisinopril 20 mg and P5P (or placebo). In each treatment sequence, all patients were randomized to P5P at the different prespecified dosages.
(§3) Mean trough sitting and standing BP were measured at each visit. Twenty-four hour ambulatory BP monitoring (ABPM) were performed at Visit 2 prior to randomization (end of washout period) and after week 8 (Visit 5) and week 16 (Visit 8) weeks of active therapy. Laboratory tests were performed at screening (Visit 1), prior to randomization (Visit 2), at week 2 (Visit 3a), week 8 (Visit 5), week 10 (Visit 6a), and at week 16 (Visit 8).
(§4) Treatment Plan—Two to Four-week Washout (Baseline) Period. Patients were instructed on the proper procedure for discontinuing their current antihypertensive medications (discontinuation or tapering) according to the manufacturer's label specifications. If a patient's current antihypertensive treatment needed to be tapered earlier, the Investigator complied with the corresponding timelines before randomization. With the exception of any tapering off of prior therapy, if any, no other anti-hypertensive medication was given to the patient during the washout period. Patients continued any existing diabetic treatment with sulfonylureas (tolbutamide, tolazamide, acetohexamide, chlorpropamide and second generation glyburide, glipizide, glimepiride), D-Phenylalanine derivatives, metformin, thiazolidinediones, acarbose, miglitol, and/or insulin throughout the study. Patients received placebo to be taken twice daily during the washout period. Standard diabetic medication was maintained throughout study. The duration of the washout period was two to four weeks, at the discretion of the Investigator taking into consideration whether the patient's blood pressure had stabilized following removal of any prior antihypertensive medication.
(§5) Active (Study) Medication Period: After the washout period, eligible patients were randomized to one of the 2 following sequences of treatment for 16 weeks.
(§6) Week 0 to 8: Treatment period (P5P alone (or placebo) or P5P (or placebo) and Lisinopril)
(§7) Week 8 to 16: Treatment period (P5P alone (or placebo) or P5P (or placebo) and Lisinopril)
(§8) Study Groups—The patients were randomized into one of […] groups:
(§9) Sequence 1 P5P 300 mg and then P5P 300 mg+Lisinopril 20 mg
(§10) Sequence 2 P5P 300 mg+Lisinopril 20 mg and then P5P 300 mg alone
(§11) All medications were taken at the same time each day during washout and treatment periods:
(§12) Other Efficacy Endpoints—Analytical efficacy measurements, including markers of metabolic function (insulinemia, fasting serum glucose, glycated hemoglobin, LDL, HDL, non-HDL and triglycerides), endothelial function (ICAM-1, VCAM-1, E-selectin and albuminuria), kidney function (creatinine, glomular filtration rate), CRP and homocysteine, were conducted on blood samples taken on Visits 2, 5 and 8. Samples were sent to a central laboratory for analysis.

serum LDL = assay: Phase II cross-over study of P5P alone and with lisinopril in hypertensive type 2 diabetic patients: LDL; settings: for LDL change, 16 wk vs. baseline (b): LDL non-stratified data; for reduction in serum LDL levels: patients having elevated LDL levels (>2.59 mmol/L)
Method: as §1, §2, §3, §4, §5, §6, §7, §8, §9, §10, §11, §12

serum triglyceride (TG) = assay: Phase II cross-over study of P5P alone and with lisinopril in hypertensive type 2 diabetic patients: triglycerides; settings: for TG change, 16 wk vs. baseline (b): Lisinopril/P5P therapy, patients with TG ≧1.7 mmol/L; for reduction in serum TG levels vs. baseline: patients with elevated TG (>1.7 mmol/L) at baseline
Method: as §1, §2, §3
as §4, with “medication. […]” for “medication.”

[1] = system: total serum cholesterol (TC); assay: Phase II cross-over study of P5P alone and with lisinopril in hypertensive type 2 diabetic patients: total cholesterol; settings: for reduction in serum TC levels (placebo corrected): patients having elevated TC levels (>5.15 mmol/L)
Method: as §1, §2, §3, §4, §5, §6, §7, §8, §9, §10, §11, §12

[2] = P5P 300 mg, patients with Non HDL >3.34 mmol/L
[3] = P5P 300 mg, patients with LDL >2.59 mmol/L
[4] = P5P 300 mg, patients with TC >5.18 mmol/L

## Cc1ncc(COP(=O)(O)O)c(C=O)c1O [P5P, pyridoxal-5′-phosphate]
Non-HDL; P5P 300 mg, non-stratified, calculated number, not measured in plasma
  Non-HDL change vs baseline (b): −0.21 mmol/L (p=)b
Non-HDL; [2]
  Non-HDL change: −0.68 mmol/L (p = 0.029)
  Non-HDL reduction vs baseline (b): (15%)b
Non-HDL; P5P 300 mg, patients with non-HDL >3.34 mmol/L at baseline
  reduction in non-HDL compared to baseline: 0.68 mmol/L
Non-HDL; P5P 1000 mg, non-stratified, calculated number, not measured in plasma
  Non-HDL change vs baseline (b): −0.26 mmol/L (p = 0.089)b
Non-HDL; P5P 1000 mg, patients with Non HDL >3.34 mmol/L
  Non-HDL change vs baseline (b): −0.71 mmol/L (p = 0.007)b
Non-HDL; P5P 1000 mg, patients with non-HDL. 3.34 mmol/L
  decrease in non-HDL vs. baseline: 0.71 mmol/L
Serum LDL; P5P 300 mg
  LDL change, 16 wk vs. baseline (b): −0.15 mmol/L (p = 0.194)b
  reduction in serum LDL levels: about 0.41 mmol/L
Serum LDL; [3]
  LDL change: −0.41 mmol/L (p = 0.04)
  LDL reduction: (12% reduction)
Serum LDL; P5P 1000 mg
  LDL change, 16 wk vs. baseline (b): −0.15 mmol/L (p = 0.197)b
  reduction in serum LDL levels: about 0.53 mmol/L
Serum LDL; P5P 1000 mg, patients with LDL >2.59 mmol/L
  LDL change: −0.53 mmol/L (p = 0.075)
Serum LDL; patients taking 300 mg or 1000 mg of P5P
  average reduction in serum LDL levels (placebo corrected): 0.27 mmol/L
Serum triglyceride (TG); P5P 300 mg daily (BID)
  TG change, 16 wk vs. baseline (b): −0.70 mmol/L (p = 0.04)b
Serum triglyceride (TG); P5P 300 mg
  reduction in serum TG levels vs. baseline: about 0.70 mmol/L
Serum triglyceride (TG); P5P 1000 mg daily (BID)
  TG change, 16 wk vs. baseline (b): −0.56 mmol/L (p = 0.12)b
Serum triglyceride (TG); P5P 1000 mg
  reduction in serum TG levels vs. baseline: about 0.56 mmol/L
[1]; P5P 300 mg, TC non-stratified
  TC change vs baseline (b): −0.18 mmol/L (p = 0.273)b
[1]; P5P 300 mg
  reduction in serum TC levels (placebo corrected): about 0.91 mmol/L
[1]; [4]
  TC change: −0.91 mmol/L (p = 0.02)
  TC reduction vs baseline (b): (15.7%)b
[1]; P5P 1000 mg, TC non-stratified
  TC change vs baseline (b): −0.29 mmol/L (p = 0.075)b
[1]; P5P 1000 mg
  reduction in serum TC levels (placebo corrected): about 1.03 mmol/L
[1]; P5P 1000 mg, patients with TC >5.18 mmol/L
  TC change vs baseline (b): −1.03 mmol/L (p = 0.001)b
